# Measurements reported in ChEMBL document CHEMBL4420071, “Method for treating skin with retinoids and retinoid boosters” (2013).
# Key:
# [1] = organism: Homo sapiens; assay: Inhibition of transglutaminase in human keratinocytes assessed as mean transglutaminase activity level at 1.79 10^-9M in presence of 10 uM retinal relative to retinal alone; type: cell-based; parameters: scale not given: the % may be the effect or the level left
# [2] = organism: Homo sapiens; assay: Inhibition of transglutaminase in human keratinocytes assessed as mean transglutaminase activity level at 8.78 10^-9M in presence of 10 uM retinal relative to retinal alone; type: cell-based; parameters: scale not given: the % may be the effect or the level left
# [3] = organism: Homo sapiens; assay: Inhibition of transglutaminase in human keratinocytes assessed as mean transglutaminase activity level at 5.93 10^-6M in presence of 10 uM retinal relative to retinal alone; type: cell-based; parameters: scale not given: the % may be the effect or the level left
# [4] = organism: Homo sapiens; assay: Inhibition of transglutaminase in human keratinocytes assessed as mean transglutaminase activity level at 1.98 10^-6M in presence of 10 uM retinal relative to retinal alone; type: cell-based; parameters: scale not given: the % may be the effect or the level left
# [5] = organism: Homo sapiens; assay: Inhibition of transglutaminase in human keratinocytes assessed as mean transglutaminase activity level at 6.58 10^-7M in presence of 10 uM retinal relative to retinal alone; type: cell-based; parameters: scale not given: the % may be the effect or the level left
# [6] = organism: Homo sapiens; assay: Inhibition of transglutaminase in human keratinocytes assessed as mean transglutaminase activity level at 1.6 10^-4M in presence of 10 uM retinal relative to retinal alone; type: cell-based; parameters: scale not given: the % may be the effect or the level left
# [7] = organism: Homo sapiens; assay: Inhibition of transglutaminase in human keratinocytes assessed as mean transglutaminase activity level at 1.78 10^-5M in presence of 10 uM retinal relative to retinal alone; type: cell-based; parameters: scale not given: the % may be the effect or the level left
# [8] = organism: Homo sapiens; assay: Inhibition of transglutaminase in human keratinocytes assessed as mean transglutaminase activity level at 5.33 10^-5M in presence of 10 uM retinal relative to retinal alone; type: cell-based; parameters: scale not given: the % may be the effect or the level left
# [9] = organism: Homo sapiens; assay: Inhibition of transglutaminase in human keratinocytes assessed as mean transglutaminase activity level at 4.39 10^-8M in presence of 10 uM retinal relative to retinal alone; type: cell-based; parameters: scale not given: the % may be the effect or the level left
# [10] = organism: Homo sapiens; assay: Inhibition of transglutaminase in human keratinocytes assessed as mean transglutaminase activity level at 2.19 10^-9M in presence of 10 uM retinal relative to retinal alone; type: cell-based; parameters: scale not given: the % may be the effect or the level left
# [11] = organism: Homo sapiens; assay: Inhibition of transglutaminase in human keratinocytes at 1 uM relative to control; type: cell-based
# [12] = organism: Homo sapiens; assay: Inhibition of transglutaminase in human keratinocytes in presence of retinal relative to retinal alone; type: cell-based; details: concentration not given here
# [13] = organism: Rattus norvegicus; assay: Inhibition of retinal reductase in Sprague-Dawley rat liver microsomes at 100 uM using all-trans retinaldehyde and NADPH by HPLC analysis relative to control
# [14] = organism: Homo sapiens; assay: Inhibition of transglutaminase in human keratinocytes assessed as mean transglutaminase activity level at 9.0 10^-3M in presence of 10 uM retinal relative to retinal alone; type: cell-based; parameters: scale not given: the % may be the effect or the level left
# [15] = organism: Homo sapiens; assay: Inhibition of transglutaminase in human keratinocytes assessed as mean transglutaminase activity level at 1.65 10^-7M in presence of 10 uM retinal relative to retinal alone; type: cell-based; parameters: scale not given: the % may be the effect or the level left
# [16] = organism: Homo sapiens; assay: Inhibition of transglutaminase in human keratinocytes assessed as mean transglutaminase activity level at 1.1 10^-4M in presence of 10 uM retinal relative to retinal alone; type: cell-based; parameters: scale not given: the % may be the effect or the level left
# [17] = organism: Homo sapiens; assay: Inhibition of transglutaminase in human keratinocytes assessed as mean transglutaminase activity level at 8.2 10^-6M in presence of 10 uM retinal relative to retinal alone; type: cell-based; parameters: scale not given: the % may be the effect or the level left
# [18] = organism: Homo sapiens; assay: Inhibition of transglutaminase in human keratinocytes assessed as mean transglutaminase activity level at 1.0 10^-3M in presence of 10 uM retinal relative to retinal alone; type: cell-based; parameters: scale not given: the % may be the effect or the level left
# [19] = organism: Homo sapiens; assay: Inhibition of transglutaminase in human keratinocytes assessed as mean transglutaminase activity level at 3.0 10^-3M in presence of 10 uM retinal relative to retinal alone; type: cell-based; parameters: scale not given: the % may be the effect or the level left
# [20] = organism: Homo sapiens; assay: Inhibition of transglutaminase in human keratinocytes assessed as mean transglutaminase activity level at 4.1 10^-5M in presence of 10 uM retinal relative to retinal alone; type: cell-based; parameters: scale not given: the % may be the effect or the level left
# [21] = organism: Homo sapiens; assay: Inhibition of transglutaminase in human keratinocytes assessed as mean transglutaminase activity level at 3.73 10^-4M in presence of 10 uM retinal relative to retinal alone; type: cell-based; parameters: scale not given: the % may be the effect or the level left
# [22] = organism: Homo sapiens; assay: Inhibition of transglutaminase in human keratinocytes assessed as mean transglutaminase activity level at 1.23 10^-5M in presence of 10 uM retinal relative to retinal alone; type: cell-based; parameters: scale not given: the % may be the effect or the level left
# [23] = organism: Homo sapiens
# Description: Inhibition of transglutaminase in human keratinocytes in presence of 10 uM retinal relative to retinal alone
# [24] = organism: Homo sapiens; assay: Inhibition of transglutaminase in human keratinocytes assessed as mean transglutaminase activity level at 3.29 10^-7M in presence of 10 uM retinal relative to retinal alone; type: cell-based; parameters: scale not given: the % may be the effect or the level left
# [25] = target: T1, Cellular retinoic acid-binding protein 2 (Homo sapiens) (UniProt P29373); assay: Inhibition of radioactive all-trans retinoic acid binding to CRABP2 (unknown origin) expressed in Escherichia coli BLR(DE3)pLys incubated for 1 hr by scintillation counting assay; details: concentration not given here
# T1 sequence (whole entry): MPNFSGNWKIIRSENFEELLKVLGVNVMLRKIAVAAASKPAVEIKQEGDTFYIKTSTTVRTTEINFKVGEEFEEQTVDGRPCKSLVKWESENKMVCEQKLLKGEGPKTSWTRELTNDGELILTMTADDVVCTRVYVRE
# [26] = organism: Homo sapiens; assay: Inhibition of transglutaminase in human keratinocytes assessed as mean transglutaminase activity level at 1.1 10^-8M in presence of 10 uM retinal relative to retinal alone; type: cell-based; parameters: scale not given: the % may be the effect or the level left
# [27] = organism: Homo sapiens; assay: Inhibition of transglutaminase in human keratinocytes assessed as mean transglutaminase activity level at 5.0 10^-8M in presence of 10 uM retinal relative to retinal alone; type: cell-based; parameters: scale not given: the % may be the effect or the level left
SMILES,Activity [15] [%],Activity [16] [%],Activity [17] [%],Activity [18] [%],Activity [20] [%],Activity [21] [%],Activity [22] [%],IC20 [23],Activity [24] [%],also measured
CCCCCCCC(=O)OC[C@H](COP(=O)([O-])OCC[N+](C)(C)C)OC(=O)CCCCCCC,–,–,–,–,–,–,–,–,–,Activity [1]: 82%; Activity [2]: 119%; Activity [3]: 129%; Activity [4]: 110%; Activity [5]: 92.8%; Activity [6]: 58.1%; Activity [7]: 104%; Activity [8]: 95.4%; Activity [9]: 127%; Activity [10]: 88.6%
CC1=C(/C=C/C(C)=C/C=C/C(C)=C/C=O)C(C)(C)CCC1,–,–,–,–,–,–,–,–,–,inhibition [11]: 55%
O=C(NCNC(=O)NC1C(=O)NC(=O)N1CO)NC1C(=O)NC(=O)N1CO (stereo unspecified),–,–,–,–,–,–,–,–,–,inhibition [12]: 35%
CC/C=C\C/C=C\C/C=C\CCCCCCCC(=O)O,77,-23,119,-7.5,65.9,68,94.9,1.21 ×10⁻⁴ M,98,inhibition [13]: 54%; Activity [14]: -11%; Activity [19]: -5.7%
CC(C)CCCCCCCCCCCCCCC(=O)O,95,1.2,103,-8.6,67,-5.3,80,6.23 ×10⁻⁵ M,123,inhibition [25]: > 50%; Activity [26]: 78%; Activity [27]: 78%
